Experimental findings from patent US9603869B2, “Lithium co-crystals and an additional neuropsychiatric agent for treatment of neuropsychiatric disorders” (UNIVERSITY OF SOUTH FLORIDA, priority 2015, dated 2017) are described below.

The subject of series [1] is N2a cells. The series is described as follows: Neuronal cell differentiation of N2a cells (β-tubulin III, phospho-synapsin I). It is filed as cell-based, mouse. The following applies: 10 mM, 24 hours, P>0.05. As for the experimental part: FIGS. 5A-5C. […] These cells were then permeabilized with 0.05% Triton X-100 for 5 minutes, washed and stained with mouse anti-β-tubulin III monoclonal antibody ([…]™) and rabbit anti-phospho-Synapsin I (Ser^62, Ser^67) polyclonal antibody (EMD Millipore) overnight at 4° C. […] Confocal images were taken by Olympus fluoview FV1000 laser scanning confocal microscope (Tokyo, Japan).
These cells were then permeabilized with 0.05% Triton X-100 for 5 min, washed, and stained with mouse anti-β-tubulin III monoclonal antibody ([…]™) and rabbit anti-phospho-synapsin I (Ser^62, Ser^67) polyclonal antibody (EMD Millipore) overnight at 4° C. […] Confocal images were taken by Olympus Fluoview™ FV1000 laser scanning confocal microscope (Tokyo, Japan) (FIG. 5A).

Series [2] relates to Murine neuronal stem cells. Briefly: Murine neuronal stem cell differentiation (MAP2, total tau, phospho-synapsin I). The class given is cell-based, mouse. The conditions noted are these: murine neuronal stem cells, 10 mM, 4 days, P>0.05. The protocol:
FIGS. 6A-6F. […] These cells were then permeabilized, washed and stained with mouse anti-MAP2 monoclonal antibody (EMD Millipore) or mouse anti-total tau (tau46) antibody overnight at 4° C. […] Confocal images were taken by Olympus fluoview FV1000 laser scanning confocal microscope. […] DAPI staining (Life Technologies) was used to detect nuclear DNA. Confocal images were taken by Olympus Fluoview™ FV1000 laser scanning confocal microscope (FIG. 17A). […] The band density ratios of MAP2 to β-actin, total tau to β-actin, and phospho-synapsin I to β-actin are presented as mean±S.D (FIGS. 17B-1, 17B-2, and 17B-3, respectively).

In series [3] the test system is Human neural stem cells (H9-Derived). The series is described as follows: Human neuronal stem cell differentiation (MAP2, GFAP). It is filed as cell-based. The following applies: human neural stem cells, 10 mM, 14 days, P>0.05. From the text: Human neural stem cells (H9-Derived) were obtained from Life technologies and cultured with StemPro® NSC SFM media. […] DAPI was used to detect nuclear DNA. Confocal images were taken by Olympus Fluoview™ FV1000 laser scanning confocal microscope (FIG. 18A).

The test system of series [4] is Mouse primary microglial cells. The series is described as follows: Autophagy (LC3B staining) in mouse primary microglial cells. It is filed as cell-based. The conditions noted are these: 10 mM, 18 hours; for autophagy (LC3B fluorescence intensity of autophagosomes and cytosol): vs PBS control. The text has this: FIG. 8. […] The fluorescence intensity of the autophagosomes and the cytosol were quantified using SLIDEBOOK™ digital microscopy software.
The fluorescence intensity of the autophagosomes and the cytosol were quantified using Slidebook™ digital microscopy software (mean±SD) (FIG. 19).

Series [5] deals with GSK3β. The series is described as follows: GSK3β phosphorylation Western blot in human renal proximal tubule (HRPT) cells. It is filed as cell-based. The conditions noted are these: 0 to 30 mM, 12 hours. On the technique in general: A western blot detects proteins with antibodies after separation by electrophoresis.
The test system of series [6] is COX2. The series is described as follows: COX2 expression Western blot in human renal proximal tubule (HRPT) cells. The following applies: 0 to 30 mM, 12 hours.
From the text: These cells were then lysed with cell lysis buffer and analyzed by WB for COX2, total GSK3β and phospho GSK3β (Ser9 and Thr390) expression using anti-COX2 antibody (FIG. 7A, ABCAM®) and anti-phospho- and total GSK3β antibodies (FIG. 7B).
These cells were then lysed with cell lysis buffer and analyzed by WB for COX2, total GSK3β and phospho GSK3β (Ser^9) expressions using anti-COX2 antibody (FIG. 20A, Abcam®) and anti-phospho- and total GSK3β antibodies (FIG. 20B).
Series [7] has as its system β-amyloid pathology in Tg2576 mice. The following applies: diet 8 weeks, lithium 2.25 mmol/kg/day, Li2CO3 vs control NIH31 diet. The protocol:
All mice received normal drinking water ad libitum. […] Mouse brain tissue sections and homogenates were prepared from each mouse after treatment. Half-brain coronal sections were analyzed by Aβ antibody 4G8 staining (FIG. 14A). Percentage of 4G8 positive plaques (mean±SD) was quantified by image analysis (28, 29) (FIG. 14B). Total soluble and insoluble Aβ40,42 peptides from homogenates were analyzed by ELISA, and represented as picograms of Aβ peptides per mg of total protein (FIG. 14C).

Series [8] has as its system GSK3β. The conditions noted are these: Tg2576 mice, diet 8 weeks, 2.25 mmol/kg/day; LISPRO vs Li2CO3-treated, Li2CO3 vs control NIH31 diet. The text has this: (§1) Inhibitory phosphorylation status of GSK3β was detected by anti-phospho-GSK3β (Ser^9) [pGSK3β (Ser^9)] antibody.
Series [9] concerns tau. The following applies: Tg2576 mice, diet 8 weeks, 2.25 mmol/kg/day; LISPRO vs Li2CO3-treated, Li2CO3 vs control NIH31 diet.
From the text: as §1

The test system of series [10] is cytokines and sCD40L. The following applies: Tg2576 mice, diet 8 weeks, 2.25 mmol/kg/day, vs control NIH31 diet. From the text:
In addition, spleens from these mice were isolated and splenocytes cultured as described previously (30).

The conditions of series [11]: C57BL/6J mice, diet 1 or 2 weeks, lithium 1.125 or 2.25 mmol/kg/day. As for the experimental part:
All mice received normal drinking water ad libitum. Statistical analysis was carried out following ANOVA analysis.

Series [12] deals with COX2. The conditions noted are these: Tg2576 mice, diet 8 weeks, lithium 2.25 mmol/kg/day.
The conditions of series [13]: rats, 4 mEq/kg lithium, oral gavage.
The test system of series [14] is COX2. The conditions noted are these: C57BL/6J male mice, diet 1 or 2 weeks, lithium 1.125 and 2.25 mmol/kg/day. The text has this: All mice received normal drinking water ad libitum. Kidneys were collected after treatment and analyzed by immunohistochemistry for COX2 expression in the renal medulla (FIG. 21A). In addition, the kidney microsomal proteins were extracted to assess COX2 expression by WB (FIGS. 21B-1, 21B-2). Data are expressed as mean±SD in duplicates from six mice in each group (FIG. 21B-3).

As to `O=C(O)[C@@H]1CCCN1` [L-proline], the “difference in β-tubulin III and phospho-synapsin I immunofluorescence and WB between Li2CO3, LiCl and L-proline” value in [1] was “no notable or significant difference”. Further, the “difference in MAP2, phospho-synapsin I and total tau immunofluorescence and WB between Li2CO3, LiCl and L-proline” value in [2] is listed as “no significance difference”. Besides, the “difference in MAP2 and GFAP immunofluorescence and WB between Li2CO3, LiCl and L-proline” value in series [3] is reported as “no significance difference”. In addition, the “autophagy (LC3B fluorescence intensity of autophagosomes and cytosol)” value in [4] is “failed to promote any notable autophagy”. Also, in series [5], the “GSK3β activity / GSK3β (Ser9) phosphorylation (WB)” value is recorded as “no change”. Besides, the “COX2 expression (WB)” value in series [6] is “no change”.
`O=C([O-])[O-].[Li+].[Li+]` [Li2CO3, lithium carbonate]: the “β-amyloid pathology (4G8 positive Aβ plaques in brain sections)” value in series [7] is recorded as “no notable or significant difference”. In addition, in series [8], the “ratio of pGSK3β (Ser9) to total GSK3β in brain homogenates” value is “no notable and significant difference”. Further, the “ratio of p-tau (Thr231) to total tau in brain homogenates” value in [9] is “no notable and significant difference”. In series [10], the “cytokine levels in plasma and splenocyte cultured media” value is “no notable or significant difference”. In addition, in [1], the “difference in β-tubulin III and phospho-synapsin I immunofluorescence and WB between Li2CO3, LiCl and L-proline” value is listed as “no notable or significant difference”. In addition, the “difference in MAP2, phospho-synapsin I and total tau immunofluorescence and WB between Li2CO3, LiCl and L-proline” value in [2] is “no significance difference”. For the same compound, in series [3], the “difference in MAP2 and GFAP immunofluorescence and WB between Li2CO3, LiCl and L-proline” value is recorded as “no significance difference”. In addition, the “autophagy (LC3B fluorescence intensity of autophagosomes and cytosol)” value in series [4] is “significant enhancement of autophagy”. In addition, the “difference in GSK3β phosphorylation between Li2CO3 and LiCl” value in series [5] is recorded as “no notable differences”. Besides, the “difference in lithium levels in serum and brain homogenate between Li2CO3- and lithium salicylate-treated mice” value in series [11] was “no significant difference”. Further, the “kidney (renal) COX2 expression versus control mice” value in series [12] was “enhanced”. Moreover, in series [13], the “brain lithium level profile” value was “spike in brain lithium levels at 24 hours”; the “plasma lithium level at 48 hours” value is listed as “nearly undetectable”; the “plasma lithium pharmacokinetic profile” value is “sharp peak and rapid elimination”. Besides, the “difference in COX2 expression between Li2CO3 and LiCl” value in series [6] is reported as “no notable differences”.
Regarding `[Cl-].[Li+]` [LiCl], the “difference in β-tubulin III and phospho-synapsin I immunofluorescence and WB between Li2CO3, LiCl and L-proline” value in series [1] is listed as “no notable or significant difference”. In series [2], the “difference in MAP2, phospho-synapsin I and total tau immunofluorescence and WB between Li2CO3, LiCl and L-proline” value is reported as “no significance difference”. In addition, the “difference in MAP2 and GFAP immunofluorescence and WB between Li2CO3, LiCl and L-proline” value in [3] is “no significance difference”. In addition, the “difference in fluorescence intensity of autophagosomes and cytosol versus Li2CO3” value in series [4] (P>0.05) is “no significance difference”. In addition, the “difference in GSK3β phosphorylation between Li2CO3 and LiCl” value in [5] is “no notable differences”. Also, the “difference in COX2 expression between Li2CO3 and LiCl” value in series [6] was “no notable differences”.
In the case of `O=C([O-])c1ccccc1O.[Li+]` [lithium salicylate], in series [14], the “kidney microsomal COX2 expression levels versus control NIH31 diet” value is reported as “no significant difference”. Further, in [11], the “difference in lithium levels in serum and brain homogenate between Li2CO3- and lithium salicylate-treated mice” value is recorded as “no significant difference”.
